Laboratory results from patent US5401875A, “2-aminocarboxylic acids and their derivatives, processes for their preparation and their use as medicaments” (Godecke Aktiengesellschaft, priority 1988, dated 1995).
Where a name gives a salt, the structure may show the parent alone.

Legend:
protein kinase C = experiment: C-kinase: inhibition of protein kinase C, incorporation of phosphorus-32 labelled phosphate in histone; assay type: biochemical, rat brain or chicken stomach smooth muscle; details: pH 7.5; 10 μM ATP; 5 nM PKC; 5 min at 30° C.
Method: The enzyme is purified from rat brain or smooth muscle (chicken stomach). Its activity is determined via the incorporation of phosphorus-32 labelled phosphate in histone. The reaction batch of 200 μL contains the following components: 50 mM HEPES-NaOH, pH 7.5, 5 mM MgCl2, 1 mM DTT, 4 μM free Ca^2+, 10 μM ATP, 1 μg phosphatidylserine, 0.2 μg 1,2-diolein, as well as 40 μg histone H-1. The batch is preincubated for 4 minutes at 30° C. and the reaction then started by addition of 5 nM PKC. After 5 minutes incubation at 30° C. the reaction is stopped with 10% TCA and the samples then filtered off. The phosphate incorporation is determined by means of Cerenkov counting in a scintillation counter.

[1] = target: T1, cycloAMP-dependent kinase (Homo sapiens, UniProt P17612); experiment: A-kinase: inhibition of cyclic AMP-dependent kinase (commercially available catalytic subunit), phosphorus-32 incorporation into histone; assay type: biochemical; details: pH 7.5; 40 μM ATP; histone-H-2B; read-out: Inhibition of cAMP-kinase, IC50-values
T1 construct: purchased
Method: The measurement of the activity takes place with the commercially available catalytic subunit of the enzyme. The incorporation of phosphorus-32 labelled phosphate into histone is thereby measured. The reaction batch of 200 μL contains the following components: 50 mM PIPES-NaOH, pH 7.5, 10 mM MgCl2, 1 mM DTT, 40 μM ATP, as well as 50 μg histone-H-2B. The carrying out of the test takes place as in the case of C-kinase.

[2] = target: T2, cycloGMP-dependent kinase (Bos taurus, UniProt P00516); experiment: G-kinase: inhibition of cyclic GMP-dependent kinase, phosphorus-32 incorporation into histone; assay type: biochemical, bovine; details: pH 7.4; 10 μM ATP; 10 μM cGMP; 2.5 nM G-kinase
T2 construct: The enzyme was purified from bovine lung; from tissue; host or cells: bovine lung
T2 sequence (P00516 1-671): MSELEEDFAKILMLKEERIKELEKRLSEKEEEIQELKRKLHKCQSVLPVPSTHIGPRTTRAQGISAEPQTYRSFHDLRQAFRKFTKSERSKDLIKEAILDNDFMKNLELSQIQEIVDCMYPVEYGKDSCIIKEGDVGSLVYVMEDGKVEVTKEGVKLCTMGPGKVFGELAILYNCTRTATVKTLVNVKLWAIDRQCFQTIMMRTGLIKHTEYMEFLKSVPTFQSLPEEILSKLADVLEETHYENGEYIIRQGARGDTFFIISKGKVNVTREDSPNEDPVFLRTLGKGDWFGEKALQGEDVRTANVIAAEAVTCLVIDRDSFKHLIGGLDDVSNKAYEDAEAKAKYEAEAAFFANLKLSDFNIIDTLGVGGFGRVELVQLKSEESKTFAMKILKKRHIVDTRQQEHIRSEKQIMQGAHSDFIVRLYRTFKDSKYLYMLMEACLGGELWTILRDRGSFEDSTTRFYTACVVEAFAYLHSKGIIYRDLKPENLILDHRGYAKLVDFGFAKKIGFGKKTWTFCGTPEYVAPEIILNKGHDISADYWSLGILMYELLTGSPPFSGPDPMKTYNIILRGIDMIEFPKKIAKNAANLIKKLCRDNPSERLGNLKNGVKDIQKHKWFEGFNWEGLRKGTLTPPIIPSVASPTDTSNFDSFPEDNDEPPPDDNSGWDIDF
Method: The enzyme was purified from bovine lung and its activity determined via the incorporation of phosphorus 32-labelled phosphate into histone. In the test batch are contained the following components: 20 mM Tris-HCl, pH 7.4, 5 mM MgCl2, 1 mM DTT, 10 μM ATP, 10 μM cGMP, 40 μg BSA, 2% glycerol, as well as 10 μg histone II-A. The starting of the reaction takes place by addition of 2.5 nM G-kinase. Otherwise, the carrying out of the test takes place as in the case of C-kinase.

[3] = target: T3, myosine light chain kinase (Gallus gallus, UniProt P11799); experiment: MLC-kinase: inhibition of myosine light chain kinase, phosphorus-32 incorporation into MLC; assay type: biochemical, chicken; details: pH 7.2; 250 μM ATP; 25 μM MLC; about 1 nM MLC kinase
T3 construct: Not only the enzyme but also the substrate (MLC) are purified from chicken stomach; from tissue; host or cells: chicken stomach
T3 sequence (P11799 935-1906 limits assumed): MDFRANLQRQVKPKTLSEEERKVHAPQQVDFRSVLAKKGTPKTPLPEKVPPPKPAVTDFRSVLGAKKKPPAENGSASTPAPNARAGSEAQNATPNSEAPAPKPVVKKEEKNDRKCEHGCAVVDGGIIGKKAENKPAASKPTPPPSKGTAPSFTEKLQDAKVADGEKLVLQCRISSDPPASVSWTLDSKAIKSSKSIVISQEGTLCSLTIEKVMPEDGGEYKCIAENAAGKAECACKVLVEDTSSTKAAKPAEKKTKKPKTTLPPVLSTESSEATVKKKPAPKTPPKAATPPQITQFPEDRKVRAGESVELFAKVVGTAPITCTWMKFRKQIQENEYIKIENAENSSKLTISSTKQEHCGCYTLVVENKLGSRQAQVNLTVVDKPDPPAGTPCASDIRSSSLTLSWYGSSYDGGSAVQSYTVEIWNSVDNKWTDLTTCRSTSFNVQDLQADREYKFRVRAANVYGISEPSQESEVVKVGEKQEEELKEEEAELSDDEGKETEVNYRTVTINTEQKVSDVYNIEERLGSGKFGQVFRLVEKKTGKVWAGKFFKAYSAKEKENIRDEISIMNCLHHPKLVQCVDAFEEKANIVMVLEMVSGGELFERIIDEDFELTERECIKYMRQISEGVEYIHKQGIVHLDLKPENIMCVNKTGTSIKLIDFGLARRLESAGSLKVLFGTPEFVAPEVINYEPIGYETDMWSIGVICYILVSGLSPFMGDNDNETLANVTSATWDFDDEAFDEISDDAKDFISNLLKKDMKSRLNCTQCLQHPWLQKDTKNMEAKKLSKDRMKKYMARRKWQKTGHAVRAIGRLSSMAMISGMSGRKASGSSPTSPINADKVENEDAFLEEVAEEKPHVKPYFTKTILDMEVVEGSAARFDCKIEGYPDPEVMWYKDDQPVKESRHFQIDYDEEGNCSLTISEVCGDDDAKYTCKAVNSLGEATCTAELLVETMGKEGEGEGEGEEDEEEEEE
Method: Not only the enzyme but also the substrate (MLC) are purified from chicken stomach. The activity measurement also takes place via the incorporation of phosphorus-32 labelled phosphate. The reaction batch of 200 μL contains the following components: 50 mM MOPS-NaOH, pH 7.2, 5 mM MgCl2, 100 μM CaCl2, 100 nM calmodulin, 1 mM DTT, 250 μM ATP, as well as 25 μM MLC. The reaction is started by addition of about 1 nM MLC kinase; otherwise, the carrying out of the test takes place as in the case of C-kinase.

SMILES	IC50 (protein kinase C)	IC50 [1]	IC50 [2]	IC50 [3]
CCCCCCCCCCCCCCCCCCOCC(CN(C)C)OC(C)=O (racemic) [A, (±)1-dimethylamino-3-octadecyloxy-2-propyl acetate hydrochloride]	5 µM	> 100 µM	> 100 µM	> 100 µM
CCCCCCCCCCOCC(CN1CCC(CN)(c2ccccc2)CC1)OCCCCCCCCCC (stereo not drawn) [B]	7 µM	29 µM	28 µM	5.1 µM
CCCCCCCCCCCCCCCCCCOCC(O)CN(C)C(CO)C(=O)O (stereo not drawn) [Example 1, 2-[N-Methyl-N-(3-octadecyloxy-2-hydroxypropyl)]-amino-3-hydroxypropionic acid hydrochloride]	2.5 µM	> 100 µM	> 100 µM	> 100 µM
